Experimental data taken from patent publication US20070238680A1, “Substance and process for preventing a genetic defect from being passed onto offspring” (priority 2006, published 2007).

Tests used:
H/H sperm = assay: Sperm motility after about 24 hours in potassium-fortified sperm extender, computer-assisted semen analyzer; format: cell-based, horse
Method: (§1) Three curves are plotted—one for motility of N/N sperm, one for N/H sperm and one for H/H sperm. […] In the tests, the sperm was kept in the particular sperm extender formula for about 24 hours. It was then diluted with standard sperm extender (with the low potassium concentration) at about an 8-to-1 ratio in a bullet tube, and its motility was measured using a computer-assisted semen analyzer. Note that the bold lines on the graph are linear extrapolations between the actual data points, which are shown in squares, triangles and diamonds, and are not accurate representations of the actual values between those data points.
As shown in the bottom-most curve in FIG. 6, as the potassium concentration increases, the motility of the H/H sperm sample drops to zero somewhere prior to 50 times the standard potassium concentration. Because all sperm in the H/H sample contain the defective sperm, we conclude that all defective sperm are immobilized at this concentration. More importantly, the sperm are permanently immobilized, as the test measured motility after the sperm sample was re-extended, restoring metabolic potassium levels.

N/H sperm = assay: as above; format: cell-based, horse
Method: as §1

N/N sperm = assay: as above; format: cell-based, horse; conditions: for motility of the N/N sperm sample: about 24 hours, then re-extended about 8-to-1
Method: as §1

[1] = test system: genetically defected sperm versus healthy sperm; conditions: potassium concentration in the extra-cellular fluid in the same range for all salts
[2] = 100 times the normal potassium concentration
[3] = 70 times the normal potassium concentration, extrapolated from the curve

Compound	impairment of defective cells (H/H sperm; [2])	microscopic examination of the morphology of the sperm cells (H/H sperm; H/H sperm after high potassium exposure)	motility of the H/H sperm sample (H/H sperm; somewhere prior to 50 times the standard potassium concentration, about 24 hours, then re-extended about 8-to-1)	motility percentage of N/H sperm cell sample (N/H sperm; 50 times the normal potassium concentration, about 24 hours, then re-extended about 8-to-1)	motility rate for N/H sperm cells (N/H sperm; [3])	motility of the N/N sperm sample (N/N sperm; 50 times standard potassium concentration)	motility rate for N/N sperm cells (N/N sperm; [3])	motility of the N/N sperm sample (N/N sperm; [2])	suitable triggering event that impaired genetically defected sperm without also impairing healthy sperm [1]
[Cl-].[K+] [potassium chloride]	completely and permanently impaired	tails were permanently curled around the cell body	zero	about 53%	~38%	about 85%	~60%	29%	yielded a suitable triggering event
potassium phosphate [reference compound]									failed to produce such a suitable outcome
